Active and inactive are the calls of the source. No cut-off for these calls is given here.
Key:
[1] = species: Mus musculus; assay: Sedative activity in mouse; assay type: functional
[2] = species: Mus musculus; assay: Muscle relaxant activity in mouse; assay type: functional
[3] = species: Mus musculus; assay: Taming activity in mouse assessed as suppression of electrical current-induced aggressive behavior by foot-shock test; assay type: functional
[4] = species: Mus musculus; assay: Anticonvulsion activity in mouse assessed as protection against pentylenetetrazole-induced convulsion; assay type: functional
[5] = species: Felis catus; assay: Muscle relaxant activity in cat suspended by scruff of neck assessed as relaxation of body and hind legs; assay type: functional
[6] = species: Felis catus; assay: Sedative activity in cat; assay type: functional, organism-based

## O=C1CN=C(c2ccccc2)c2ccccc2N1 [RO-052921]
[1]
  log(1/ED50): 0.1968
[2]
  log(1/ED50): 0.1968
[3]
  log(1/MED): 0.3729
[4]
  Activity: inactive
[5]
  Activity: inactive
[6]
  Activity: inactive

## O=C1CN=C(c2ccc(Cl)cc2Cl)c2cc(Cl)ccc2N1
[1]
  Activity: inactive
[2]
  Activity: inactive
[3]
  Activity: inactive
[4]
  log(1/ED50): -0.3724
[5]
  Activity: inactive
[6]
  Activity: inactive

## O=C1CN=C(c2ccccc2F)c2cc([N+](=O)[O-])ccc2N1
[1]
  log(1/ED50): 1.8736
[2]
  log(1/ED50): 1.8736
[3]
  log(1/MED): 2.1746
[4]
  log(1/ED50): 2.4934
[4]; Mus musculus
  ED50: 0.3 mg/kg
[5]
  log(1/MED): 3.7767

## CN1C(=O)CN=C(c2ccccc2C(F)(F)F)c2cc([N+](=O)[O-])ccc21
[1]
  log(1/ED50): 0.8609
[2]
  log(1/ED50): 0.8609
[3]
  log(1/MED): 1.8609
[4]
  log(1/ED50): 2.7148
[5]
  log(1/MED): 3.5599

## CN1C(=O)CN=C(c2ccccc2Cl)c2cc(Cl)ccc21
[1]
  log(1/ED50): 0.9016
[2]
  log(1/ED50): 0.9016
[3]
  log(1/MED): 1.5037
[4]
  log(1/ED50): 2.8804
[5]
  log(1/MED): 3.5037

## O=C1CN=C(c2ccccc2C(F)(F)F)c2cc([N+](=O)[O-])ccc2N1
[1]
  log(1/ED50): 0.5428
[2]
  log(1/ED50): 0.5428
[3]
  log(1/MED): 1.5428
[4]
  log(1/ED50): 2.6977
[5]
  log(1/MED): 3.5424

## O=C1CN=C(c2ccc(F)cc2)c2cc(Cl)ccc2N1
[1]
  Activity: inactive
[2]
  Activity: inactive
[3]
  Activity: inactive
[4]
  Activity: inactive
[5]
  Activity: inactive
[6]
  Activity: inactive

Reference: ChEMBL document CHEMBL3272278, “Electronic factors in the structure-activity relationship of some 1,4-benzodiazepin-2-ones” (1977)
